Source: paper PMC12627627 (Nature Communications, 2025)
Residue numbers refer to the chain shown, from its start. Where “and” joins values, the source holds several entries; their conditions need not be identical. Identical values can stand only once.

Key:
RyR1-W881A R12 = molecular target: T1, RyR1-W881A R12 (Homo sapiens, UniProt P21817, W881A); experiment: ITC, RyR1 R12 W881A; type: binding; settings: RyR1-W881A R12, no nucleotide
T1 construct: RyR1 854–1054, RyR2 865–1065, RyR3 853–1053; made in house; host or cells: E. coli BL21 (DE3)
T1 sequence (P21817 854-1054 W881A): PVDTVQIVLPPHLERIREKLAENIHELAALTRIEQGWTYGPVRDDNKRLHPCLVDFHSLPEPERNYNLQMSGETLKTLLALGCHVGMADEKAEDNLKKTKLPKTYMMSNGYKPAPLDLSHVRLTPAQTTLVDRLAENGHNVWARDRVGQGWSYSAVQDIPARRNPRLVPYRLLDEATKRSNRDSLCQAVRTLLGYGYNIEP
Experimental: (§1) The plasmids were subsequently transformed into E. coli BL21 (DE3) cells (NEB, USA) and cultured in Luria-Bertani (LB) media at 37 °C. Protein expression was induced with 0.4 mM isopropyl β-D-thiogalactoside (IPTG) when the optical density (OD)600 reached ~0.8, followed by incubation at 18 °C for 12 h. The cells were harvested via centrifugation at 5,000 × g for 15 min at 4 °C and homogenized in Buffer A (10 mM HEPES, pH 7.4, 250 mM KCl) supplemented with 25 µg/mL DNaseI, 25 µg/mL lysozyme, 1 mM phenylmethylsulfonyl fluoride (PMSF), and 20 mM imidazole. The homogenate was centrifuged at 12,000 × g for 45 min, and the supernatant was filtered through a syringe filter (0.22 µm).
(§2) Purified R12 domain protein from the three RyR isoforms, fused with hexahistidine-tagged MBP (HMT-R12) was dialyzed overnight at 4 °C in ITC buffer (200 mM HEPES, pH 7.4, 150 mM KCl). ITC experiments were performed using a PEAQ-ITC instrument (Malvern, UK) at 25 °C with a stirring speed of 750 rpm. […] For the ternary binding experiments, 500 μM or 5 mM AMP-PCP/ADP was preincubated with both the titrants and titrates. […] The data was fit to a one-site fitting model after background buffer subtraction. The RyR1 R12 mutants were generated using a QuikChange mutagenesis kit (Stratagene) according to the manufacturer’s protocol, with primer sequences listed in Supplementary Table 3.

WT RyR1 = molecular target: T2, WT RyR1 (Oryctolagus cuniculus, UniProt P11716); experiment: Ca2+-dependent [3H]ryanodine binding, microsomes; type: biochemical; settings: for [3H]ryanodine binding (B/Bmax): Fig. 5C source data, RI-2 100 μM, single replicates
T2 construct: expressed in transfected cells
Experimental: The assay was performed as previously described[44],[45] with minor modifications. Briefly, microsomes from HEK293 cells stably expressing WT RyR1 were incubated with 5 nM [³H]ryanodine for 5 h at 25 °C in a medium containing 0.17 M NaCl, 20 mM MOPSO (pH 7.0), 2 mM dithiothreitol, 1 mM β,γ-methyleneadenosine 5′-triphosphate, and free Ca²⁺ buffered with 10 mM EGTA at varying concentrations. Free Ca²⁺ levels were calculated using WEBMAXC […][46]. Protein-bound [³H]Ryanodine (B) was isolated by filtration through polyethyleneimine-treated GF/B filters (Whatman) using a Micro 96 Cell Harvester (Skatron Instruments). Nonspecific binding was assessed by adding 20 µM unlabeled ryanodine. The maximum binding capacity of [³H]ryanodine (Bmax) was determined via Scatchard plot analysis with various concentrations (3–20 nM) of [³H]ryanodine in a high-salt medium containing 1 M NaCl. The resulting B/Bmax values represent the average activity of the cells.

RyR1 W881A = molecular target: T3, RyR1 W881A (Oryctolagus cuniculus, UniProt P11716, W882A); experiment: Time-lapse [Ca2+]ER measurement, HEK293 cells expressing RyR1 W881A; type: cell-based; settings: 4 mM caffeine; for ER luminal [Ca2+] change (F/F0): Fig. 5H source data, RyR1-W881A, single replicates
T3 construct: expressed in transfected cells
Experimental: (§3) HEK293 cells stably expressing R-CEPIA1er and RyRs (WT RyR1, RyR1-W881A, RyR1-W995A, RyR1-R2163C, and WT RyR2)[26],[27] were used in this study. Briefly, the cells were seeded at a density of 2 × 10⁴ cells/well in a 96-well black, clear-bottom plate (Corning). Doxycycline (2 µg/mL) was added 12 h after seeding, and the medium was replaced 24 h later with HEPES-buffered Krebs solution (5 mM HEPES, pH 7.4; 140 mM NaCl; 5 mM KCl; 2 mM CaCl₂; 1 mM MgCl₂; and 11 mM glucose). Fluorescence measurements were conducted using a FlexStation 3 fluorometer (Molecular Devices) at 37 °C. The R-CEPIA1er was excited at 560 nm, emitted at 610 nm, and captured every 10 seconds over 300 seconds. Different concentrations of compound, dissolved in buffer containing 1% DMSO, were added 100 s after recording began. The fluorescence changes (F/F₀) were calculated by dividing the average fluorescence of the last 100 seconds (F) by that of the first 100 seconds (F₀). All measurements were performed in triplicate.

RyR1 W995A = molecular target: T4, RyR1 W995A (Oryctolagus cuniculus, UniProt P11716, W996A); experiment: Time-lapse [Ca2+]ER measurement, HEK293 cells expressing RyR1 W995A; type: cell-based; settings: 4 mM caffeine; for ER luminal [Ca2+] change (F/F0): Fig. 5H source data, RyR1-W995A, single replicates
T4 construct: expressed in transfected cells
Experimental: as §3

RyR1-W995A R12 = molecular target: T5, RyR1-W995A R12 (Homo sapiens, UniProt P21817, W995A); experiment: ITC, RyR1 R12 W995A; type: binding
T5 construct: RyR1 854–1054, RyR2 865–1065, RyR3 853–1053; made in house; host or cells: E. coli BL21 (DE3)
T5 sequence (P21817 854-1054 W995A): T1 sequence (P21817 854-1054 W881A) with A28W, W142A
Experimental: as §1, §2

O=C(C[C@@H](NCCCO)C(=O)O)Nc1ccc2ccccc2c1 [RI-2]
Kd (RyR1-W881A R12): 292 ± 22.5 µM | No of Sites (N) (RyR1-W881A R12): 0.94 ± 0.46 | ΔH (RyR1-W881A R12): -10.7 ± 3.83 kcal/mol | −TΔS (RyR1-W881A R12): 4.71 kcal/mol | effect on Ca2+-dependent [3H]ryanodine binding (WT RyR1; 100 uM RI-2): inhibitory effect | [3H]ryanodine binding (B/Bmax) (WT RyR1; pCa 2.04): 0.002952 (2×) and 0.002725 and -0.000227 | [3H]ryanodine binding (B/Bmax) (WT RyR1; pCa 2.67): 0.005451 and 0.006359 and 0.002952 and 0.002725 | [3H]ryanodine binding (B/Bmax) (WT RyR1; pCa 3.39): 0.01453 and 0.0134 and 0.008857 (2×) | [3H]ryanodine binding (B/Bmax) (WT RyR1; pCa 4.03): 0.02816 and 0.03452 and 0.02475 and 0.02703 | [3H]ryanodine binding (B/Bmax) (WT RyR1; pCa 4.66): 0.04474 and 0.04315 and 0.03702 and 0.03429 | [3H]ryanodine binding (B/Bmax) (WT RyR1; pCa 5.03): 0.04565 and 0.04292 and 0.03884 and 0.03702 | [3H]ryanodine binding (B/Bmax) (WT RyR1; pCa 5.42): 0.0293 and 0.03838 and 0.02362 and 0.0243 | [3H]ryanodine binding (B/Bmax) (WT RyR1; pCa 6): 0.009312 and 0.01272 and 0.009084 and 0.003634 | [3H]ryanodine binding (B/Bmax) (WT RyR1; pCa 6.54): 0.005678 and 0.003861 and -0.000454 and 0.00159 | [3H]ryanodine binding (B/Bmax) (WT RyR1; pCa 6.97): 0.004088 and 0.006813 and 0.002044 and 0.0009084 | [3H]ryanodine binding (B/Bmax) (WT RyR1; pCa 7.49): 0.001136 and 0.002044 (2×) and 0.001363 | ER luminal [Ca2+] change (F/F0) (RyR1 W881A; RI-2 0.1 uM): 0.9939 and 0.9815 and 1.025 | ER luminal [Ca2+] change (F/F0) (RyR1 W881A; RI-2 0.3 uM): 0.9808 and 0.9609 and 0.9633 | ER luminal [Ca2+] change (F/F0) (RyR1 W881A; RI-2 1 uM): 0.959 and 0.9789 and 1.039 | ER luminal [Ca2+] change (F/F0) (RyR1 W881A; RI-2 3 uM): 0.968 and 1.003 and 1.025 | ER luminal [Ca2+] change (F/F0) (RyR1 W881A; RI-2 10 uM): 0.9988 and 0.9974 and 1.012 | ER luminal [Ca2+] change (F/F0) (RyR1 W881A; RI-2 30 uM): 1.035 and 0.9972 and 1.041 | ER luminal [Ca2+] change (F/F0) (RyR1 W881A; RI-2 100 uM): 0.9975 and 1.115 and 0.9708 | inhibitory effect in time-lapse ER Ca2+ measurements (RyR1 W881A; RyR1 W881A): completely lost | ER luminal [Ca2+] change (F/F0) (RyR1 W995A; RI-2 0.1 uM): 1.018 and 1 and 0.9822 | ER luminal [Ca2+] change (F/F0) (RyR1 W995A; RI-2 0.3 uM): 1.035 and 1.023 and 0.9731 | ER luminal [Ca2+] change (F/F0) (RyR1 W995A; RI-2 1 uM): 1.011 and 1.046 and 0.9965 | ER luminal [Ca2+] change (F/F0) (RyR1 W995A; RI-2 3 uM): 1.0547 and 1.017 and 1.01 | ER luminal [Ca2+] change (F/F0) (RyR1 W995A; RI-2 10 uM): 1.05 and 1.027 and 0.98 | ER luminal [Ca2+] change (F/F0) (RyR1 W995A; RI-2 30 uM): 1.073 and 0.9504 and 1.033 | ER luminal [Ca2+] change (F/F0) (RyR1 W995A; RI-2 100 uM): 0.9659 and 1.079 and 1.107 | inhibitory effect in time-lapse ER Ca2+ measurements (RyR1 W995A; RyR1 W995A): completely lost

O=C1CN(/N=C/c2ncc(-c3ccc(Br)cc3)o2)C(=O)N1 [AZU, Azumolene]
Kd (RyR1-W881A R12): 358 ± 138 µM | No of Sites (N) (RyR1-W881A R12): 1.04 ± 0.35 | ΔH (RyR1-W881A R12): -35.60 kcal/mol | −TΔS (RyR1-W881A R12): 30.90 kcal/mol | binding to RyR1 R12 W995A by ITC (RyR1-W995A R12; in the presence of AMP-PCP or ADP): can no longer be detected | binding to RyR1 R12 W995A by ITC (RyR1-W995A R12; no nucleotide): completely abolishes
